Experimental data taken from publication PMC11396062, “The n-Butanol Extract Obtained from the Inner Bark of Tabebuia rosea (Bertol.) DC, Specioside, and Catalposide Induce Leukemia Cell Apoptosis in the Presence of Apicidin” (Molecules, 2024).
In brackets after ≈: the same amount, converted by molar mass. Like-named read-outs stand apart in the source and are kept apart here.

How the values were obtained:
p38 MAPK = experiment: Western blot p38 phosphorylation; assay type: cell-based, human; conditions: THP-1, APC pretreatment, p < 0.001
Protocol: THP-1 cells were seeded in 24-well plates (5 × 10^5 cells/well), and after 24 h of incubation, they were pretreated with 1 µM apicidin for 24 h and then treated with different concentrations of the n-butanol extract, catalposide, and specioside for 24 h. After treatment, the cells were lysed with an Abcam protein extraction kit (ab270054), and a phosphatase inhibitor cocktail (ab201115) was added. The supernatants of the cell extracts were quantified with a BCA protein assay (Thermo Scientific Pierce #23227, Waltham, MA, USA). Equivalent amounts of protein were electrophoresed on 10% SDS polyacrylamide gels and then electroblotted onto 0.45 μm polyvinylidene difluoride (PVDF) membranes (GE Healthcare, Chicago, IL, USA). […] The signals were detected using SuperSignal™ West Pico PLUS Chemiluminescent Substrate (Thermo Scientific Pierce cat 34577) and analyzed with a ChemiDoc XRS+ system (Bio-Rad, Hercules, CA, USA). The density of each band was measured using ImageJ software V. 1.53n, 7 November 2021 (NIH, Bethesda, MD, USA), and the protein levels were normalized to the GAPDH levels. The data are expressed as the means of three independent experiments. […]

THP-1 cells = experiment: MTT cell viability assay, THP-1 cells; assay type: cell-based, human; conditions: for IC50: MTT, n = 3
Protocol: Jurkat and THP-1 cell lines were purchased from the American Type Culture Collection (ATCC, Rockville, MD, USA); Jurkat is a human lymphocytic cell line representing acute T-cell leukemia, and THP-1 is a monocytic cell line that represents acute myelogenous leukemia (AML). […] Cat Nos. […] The cells were maintained at 37 °C in a humidified atmosphere with 5% CO2. The culture medium was exchanged with fresh medium every 2-3 days. Peripheral blood mononuclear cells (PBMCs) were isolated from normal human venous blood. Further, 10 milliliters of human blood was mixed with 10 mL of RPMI-1640 containing 50 μL of heparin and gradually poured over 1 mL of HISTOPAQUE®-1119 (Sigma). The plasma was removed by centrifugation at 3000 rpm for 30 min. The peripheral blood mononuclear cell-containing layer was collected with a pipette and diluted in 4 mL of PBS. PBMCs were harvested by centrifugation at 1500 rpm for 10 min at room temperature, resuspended in RPMI-1640 with 10% FBS, and incubated at 37 °C in 5% CO2 humidified air. […] Doxorubicin was used as a reference standard drug (positive control). After treatment, the medium was discarded; 200 μL of RPMI 1640 medium without phenol red containing 0.5 mg/mL MTT (Sigma Chemical Co., Saint Louis, MO, USA; Cat. No. […] The plates were incubated for four hours at 37 °C with 5% CO2 in a humidified atmosphere. The medium was discarded, and 100 μL of DMSO was added to solubilize the formazan crystals. The absorbance was measured with an ELISA microplate reader at 492 nm (ELx800; BioTek Instruments Inc., Winooski, VT, USA). The percentage of viable cells was calculated on the basis of the nontreated control (taken as 100%). […] Three independent assays were performed, each in triplicate. The selectivity index corresponds to the ratio of the IC50 value calculated for the activity of synthesized compounds on a regular cell line (PBMCs) to that of the IC50 calculated for cancer cell lines (Jurkat and THP-1). Values greater than two were optimal for an efficient selectivity index.

Hep-G2 cells = tested on: Hep-G2 cells; set-up: method as in PMID 21678519; conditions: cited from earlier work
[1] = Homo sapiens, THP-1, 12 h, read-out: IC50
[2] = Homo sapiens, THP-1, 24 h, read-out: IC50
[3] = Homo sapiens, THP-1, 48 h, read-out: IC50

| IC50 (THP-1 cells; [1]) [µg/mL] | IC50 (THP-1 cells; [2]) [µg/mL] | IC50 (THP-1 cells; [3]) [µg/mL] | IC50 (THP-1 cells; THP-1, 24 h) [µg/mL] | Structure (SMILES) | phosphorylation of p38 in cells pretreated with APC compared with control (p38 MAPK) | SI (selectivity index) (THP-1 cells; IC50 PBMC / IC50 THP-1, 12 h) | SI (selectivity index) (THP-1 cells; IC50 PBMC / IC50 THP-1, 24 h) | SI (selectivity index) (THP-1 cells; IC50 PBMC / IC50 THP-1, 48 h) | effect in Hep-G2 cells (Hep-G2 cells) |
| --- | --- | --- | --- | --- | --- | --- | --- | --- | --- |
| 122 ± 3.3 (≈ 252 µM) | 43.9 (≈ 91 µM) | 30.2 ± 1.67 (≈ 62.5 µM) | 43.86 ± 2.2 (≈ 90.9 µM) | O=C(O[C@H]1[C@@H]2C=CO[C@@H](O[C@@H]3O[C@H](CO)[C@@H](O)[C@H](O)[C@H]3O)[C@@H]2[C@@]2(CO)O[C@@H]12)c1ccc(O)cc1 [Catalposide, catalposide] | significantly increased | 1.03 | 1.99 | 1.44 | only had cytotoxic and cytostatic effects |
| 47.2 ± 2.3 (≈ 92.9 µM) | 40.3 (≈ 79.3 µM) | 26.3 ± 6.8 (≈ 51.8 µM) | 40.32 ± 1.3 (≈ 79.3 µM) | O=C(/C=C/c1ccc(O)cc1)O[C@H]1[C@@H]2C=CO[C@@H](O[C@@H]3O[C@H](CO)[C@@H](O)[C@H](O)[C@H]3O)[C@@H]2[C@@]2(CO)O[C@@H]12 [Specioside] | significantly increased | 3.49 | 1.75 | 2.06 | – |
